From patent US20120282377A1, “Methods and Formulations for Inhibiting Degradation of Photosensitive Sweeteners and Sweetener Enhancers” (priority 2011, published 2012)

Tests used:
[1] = Stability of monatin in lemon lime matrix under ultraviolet light, Atlas sun-test chamber (Example 2); type: physicochemical; details: for monatin sample degraded: four days equivalent of ultraviolet light exposure (24 hours in UV chamber)
Description: High-potency sweetener monatin was evaluated for stability to sunlight exposure when formulated into a beverage packaged in PET packaging (bottle) with and without a UV barrier or in a dark-colored PET packaging. This study was designed to evaluate the stability of RR stereoisomer of monatin under normal visible light and under ultraviolet light in the Atlas sun-test chamber using normal PET bottles, PET packaging with a UV barrier and dark PET packaging. For this purpose monatin solution was made in a lemon lime carbonated beverage matrix without any flavor added.
The RR isomer of monatin was used for the present study after satisfactory HPLC and LC-MS data analyses confirmed that this sample greater than 95% pure. A lemon lime beverage matrix without flavor was used as the matrix base. The concentration of monatin in the matrix was 30 ppm.
Due to lack of any RR-monatin standard, its stereoisomer, SS-monatin was used for HPLC calibration curve preparation as it appears at the same retention time as RR-monatin.
Quantitative analysis of monatin via UV detection in LC-MS was done for all the samples. The methodology employed a 12% acetonitrile (solvent A) in 50 mM ammonium formate (pH 4.0, solvent B) for 5 min followed by a linear gradient to 34% acetonitrile over 5 min; Detection: UV @278 nm].
1) regular PET bottles, 300 mL or 8 Oz (bottle type A). 2) PET bottles with a UV barrier, 600 mL or 16 Oz, fresh un-used bottle* (bottle type B). * It was shown that the UV barrier capacity decreased after one use in the commercially bought 20 Oz PET bottles with a UV barrier (See the UV scan data in FIG. 1). 3) dark-colored PET bottles (bottle type C). UV light source: Atlas Sun-test chamber. Under program 1 of sun-test chamber, 6 hr of exposure is equal to one day of sun-light exposure in Arizona or 400 Langley at 40° C. Control Experiment: UV irradiation by using only a lemon lime matrix (no monatin added) in regular PET bottles and running the sun-test chamber for four days equivalent exposure was carried out. The purpose of this experiment was to make sure no artifact arises from lemon lime matrix in the monatin absorption region. No new signals were identified. 13 bottles were used in the monatin-lemon-lime matrix experiments: 1 regular PET at zero time and 3 regular PET bottles; 2 PET bottles with a UV barrier bottles and 7 dark-colored PET bottles. Zero time sample protocol: 330 mL PET bottle was filled up to ⅓^rd full, flushed with nitrogen, covered with foil and then kept at 4° C. Sample aliquot protocol: 5 mL was taken out in a 20 mL opaque glass scintillation vial. Both vial and experimental bottle were flushed with nitrogen. The vial was covered with foil and kept at 4° C.
LC-MS analysis was carried out on all the samples in the same day as their maturation. A new monatin calibration curve was made every day with the SS-monatin sample.
For these experiments samples were kept in the Atlas sun-test chamber where each 6 hr exposure was equivalent to one day of sun exposure in Arizona (400 Langley). […] In particular, it was noted that under UV light in regular PET, monatin degrades by 70% in just one day's exposure.

[2] = Visual analysis of UV and light exposed monatin samples by 6 panelists; type: physicochemical; set-up: key: (+) = colorless; (−) = color change (color noted); details: 30 PPM in lemon lime matrix pH 3.35, panelists 1-6
Description: A survey of odor and visual analysis of the UV and light exposed samples of the monatin samples was conducted by 6 panelists. Samples for analysis were solution of monatin in a lemon lime matrix without flavor at pH 3.35 (30 PPM monatin) exposed to visible for three days or UV light for 24 hours (equivalent of four days sun exposure).

[3] = Monatin stability in PET bottle types with or without additives, 1600 Langley UV exposure (Example 5); type: physicochemical; details: 1600 Langley (24 hour at 40° C.); for Monatin remaining after UV exposure (ppm): control 43.3 ppm
Description: The stability of monatin in regular PET bottles, PET bottles with UV barrier (colorless or green) and with or without Chinese Green Tea polyphenol or α-cyclodextrin was evaluated. Each sample was irradiated with an irradiation energy of 1600 Langley exposure (24 hour exposure at 40° C. in Atlas SunTest XLS+chamber, which was equivalent to four day of sun exposure in Arizona). A control formulation was used that contained monatin at 43.3 ppm. The results were analyzed by LC-MS.

[4] = cited from earlier work
[5] = 0 hours of exposure in UV chamber
[6] = 6 hours of exposure in UV chamber
[7] = 12 hours of exposure in UV chamber
[8] = 18 hours of exposure in UV chamber
[9] = 24 hours of exposure in UV chamber
[10] = Green PET with UV barrier (0.12%), additives none
[11] = PET with UV barrier, Chinese Green Tea Polyphenol TP>40 (149 ppm)
[12] = PET with UV barrier, additives none
[13] = PET with UV barrier, α-cyclodextrin (729 ppm)

- Conc. in mg/L RR-Monatin in Lemon Lime matrix in Normal PET Bottle (330 mL) [1, 5]: 31.1 mg/L
- Conc. in mg/L RR-Monatin in Lemon Lime matrix in UV barrier PET Bottle (600 mL) [1, 5]: 31.1 mg/L
- Conc. in mg/L RR-Monatin in Lemon Lime matrix in dark-colored PET Bottle (75 mL) [1, 5]: 31.1 mg/L
- Conc. in mg/L RR-Monatin in Lemon Lime matrix in Normal PET Bottle (330 mL) [1, 6]: 9.0 mg/L
- Conc. in mg/L RR-Monatin in Lemon Lime matrix in UV barrier PET Bottle (600 mL) [1, 6]: 27.6 mg/L
- Conc. in mg/L RR-Monatin in Lemon Lime matrix in dark-colored PET Bottle (75 mL) [1, 6]: 29.2 mg/L
- Conc. in mg/L RR-Monatin in Lemon Lime matrix in Normal PET Bottle (330 mL) [1, 7]: 2.1 mg/L
- Conc. in mg/L RR-Monatin in Lemon Lime matrix in UV barrier PET Bottle (600 mL) [1, 7]: 22.4 mg/L
- Conc. in mg/L RR-Monatin in Lemon Lime matrix in dark-colored PET Bottle (75 mL) [1, 7]: 29.1 mg/L
- Conc. in mg/L RR-Monatin in Lemon Lime matrix in Normal PET Bottle (330 mL) [1, 8]: 0.3 mg/L
- Conc. in mg/L RR-Monatin in Lemon Lime matrix in UV barrier PET Bottle (600 mL) [1, 8]: 9.8 mg/L
- Conc. in mg/L RR-Monatin in Lemon Lime matrix in dark-colored PET Bottle (75 mL) [1, 8]: 29.0 mg/L
- Conc. in mg/L RR-Monatin in Lemon Lime matrix in Normal PET Bottle (330 mL) [1, 9]: 0.0 mg/L
- Conc. in mg/L RR-Monatin in Lemon Lime matrix in UV barrier PET Bottle (600 mL) [1, 9]: 3.6 mg/L
- Conc. in mg/L RR-Monatin in Lemon Lime matrix in dark-colored PET Bottle (75 mL) [1, 9]: 28.6 mg/L
- degradation upon exposure to UV light ([1]; Regular PET bottles and PET with UV barrier bottles): did not prevent degradation of monatin
- monatin sample degraded ([1]; UV barrier PET bottle): ~90%
- monatin degrades ([1]; UV light, regular PET, one day's exposure): 70%
- monatin sample degraded ([1]; dark-colored PET bottle): less than 10%
- Visual analysis ([2]; PET with UV barrier, UV light 24 hours): −
- Visual analysis ([2]; PET with UV barrier, visible light three days): +
- Visual analysis ([2]; Regular PET, UV light 24 hours): −
- Visual analysis ([2]; Regular PET, visible light three days): +
- Monatin remaining after UV exposure (%) [3, 10]: 65.6%
- Monatin remaining after UV exposure (ppm) [3, 10]: 28.4 ppm
- Monatin remaining after UV exposure (%) [3, 11]: 77.6%
- Monatin remaining after UV exposure (ppm) [3, 11]: 33.6 ppm
- Monatin remaining after UV exposure (%) [3, 12]: 51.0%
- Monatin remaining after UV exposure (ppm) [3, 12]: 22.1 ppm
- Monatin remaining after UV exposure (%) [3, 13]: 33.3%
- Monatin remaining after UV exposure (ppm) [3, 13]: 14.4 ppm
- Monatin remaining after UV exposure (%) ([3]; Regular PET, additives none): 13.4%
- Monatin remaining after UV exposure (ppm) ([3]; Regular PET, additives none): 5.8 ppm
Compound: NC(CC(O)(Cc1c[nH]c2ccccc12)C(=O)O)C(=O)O (stereo not shown) [Monatin, 2-amino-4-carboxy-4-hydroxy-5-(3-indolyl)-pentanoic acid]
- degradation, UV light versus visible light ([1]; lemon-lime matrix): degrade faster upon UV light exposure than upon visible light exposure
- degradation upon exposure to UV light ([1]; monatin solution in dark-colored PET bottles): prevented most of the monatin from degrading
- monatin sample degraded ([1]; normal PET bottle): all of the monatin sample in the normal PET bottle had degraded
- degradation when exposed to UV light [4]: degrade to malodorous degradation products
